Laboratory results reported in patent publication US20160271263A1 (Novo Nordisk A/S, priority 2010, published 2016).
Numbered stars: 1 amine (or outer) side, 2 acyl side, 3 side chain; on linkers, the order of the positions; unused ones are H or OH. Square brackets hold non-standard residues; d marks the D form. Side chains are listed from the residue outwards. Peptide text beside a SMILES is read from it. * marks the point of attachment. C18 diacid = O=C(O)CCCCCCCCCCCCCCCCC(=O)*; γGlu = O=C(O)[C@H](CCC(=O)[*:2])N[*:1]; AEEA = NCCOCCOCC(=O)O; Aib = CC(C)(N)C(=O)O

Target: glucagon receptor (Homo sapiens, UniProt P47871)
Test: cell-based

Sequence of glucagon receptor (P47871 26-477): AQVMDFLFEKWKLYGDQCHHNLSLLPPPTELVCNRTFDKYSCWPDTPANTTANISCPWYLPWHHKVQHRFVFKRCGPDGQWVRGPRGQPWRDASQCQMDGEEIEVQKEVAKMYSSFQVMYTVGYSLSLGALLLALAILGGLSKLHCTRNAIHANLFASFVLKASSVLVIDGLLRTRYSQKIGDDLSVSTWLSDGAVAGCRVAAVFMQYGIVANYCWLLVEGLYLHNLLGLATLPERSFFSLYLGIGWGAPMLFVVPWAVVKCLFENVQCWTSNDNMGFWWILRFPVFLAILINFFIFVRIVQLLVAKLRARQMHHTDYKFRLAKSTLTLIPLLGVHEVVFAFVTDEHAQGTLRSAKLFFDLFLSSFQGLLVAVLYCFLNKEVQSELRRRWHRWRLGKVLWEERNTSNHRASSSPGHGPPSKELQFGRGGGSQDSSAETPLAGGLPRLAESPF

Structure (SMILES)	EC50 [nM]
CC(C)C[C@H](NC(=O)[C@H](Cc1ccc(O)cc1)NC(=O)[C@H](CCCCN)NC(=O)[C@H](CO)NC(=O)[C@H](Cc1ccc(O)cc1)NC(=O)[C@H](CC(=O)O)NC(=O)[C@H](CO)NC(=O)[C@@H](NC(=O)[C@H](Cc1ccccc1)NC(=O)[C@@H](NC(=O)CNC(=O)[C@H](CCC(N)=O)NC(=O)C(C)(C)NC(=O)[C@@H](N)Cc1c[nH]cn1)[C@@H](C)O)[C@@H](C)O)C(=O)N[C@@H](CC(=O)O)C(=O)N[C@@H](CCC(=O)O)C(=O)N[C@@H](CCCNC(=N)N)C(=O)N[C@@H](CCCNC(=N)N)C(=O)N[C@@H](C)C(=O)N[C@@H](CCC(N)=O)C(=O)N[C@@H](CC(=O)O)C(=O)N[C@@H](Cc1ccccc1)C(=O)N[C@H](C(=O)N[C@@H](CCCCNC(=O)COCCOCCNC(=O)COCCOCCNC(=O)CC[C@H](NC(=O)CCCCCCCCCCCCCCCCC(=O)O)C(=O)O)C(=O)N[C@@H](Cc1c[nH]c2ccccc12)C(=O)N[C@@H](CC(C)C)C(=O)N[C@@H](CC(C)C)C(=O)N[C@@H](CC(N)=O)C(=O)N[C@H](C(N)=O)[C@@H](C)O)C(C)C [Example 29, N^ε24-([2-[2-[2-[[2-[2-[2-[[(4S)-5-hydroxy-4-[(18-hydroxy-18-oxooctadecanoyl)amino]-5-oxopentanoyl]amino]ethoxy]ethoxy]acetyl]amino]ethoxy]ethoxy]acetyl]) [Aib^2,Glu^16,Lys^24,Leu^27]Glucagon peptide amide] (H-H[Aib]QGTFTSDYSKYLDERRAQDFVK([AEEA-AEEA-γGlu-C18 diacid])WLLNT-NH2; N-terminus assumed)	0.135
CC(C)C[C@H](NC(=O)[C@H](Cc1ccc(O)cc1)NC(=O)[C@H](CCCCN)NC(=O)[C@H](CO)NC(=O)[C@H](Cc1ccc(O)cc1)NC(=O)[C@H](CC(=O)O)NC(=O)[C@H](CO)NC(=O)[C@@H](NC(=O)[C@H](Cc1ccccc1)NC(=O)[C@@H](NC(=O)CNC(=O)[C@H](CCC(N)=O)NC(=O)[C@@H](CO)NC(=O)[C@@H](N)Cc1c[nH]cn1)[C@@H](C)O)[C@@H](C)O)C(=O)N[C@@H](CC(=O)O)C(=O)N[C@@H](CCC(=O)O)C(=O)N[C@@H](CCC(N)=O)C(=O)N[C@@H](C)C(=O)N[C@@H](C)C(=O)N[C@@H](CCCNC(=N)N)C(=O)N[C@@H](CC(=O)O)C(=O)N[C@@H](Cc1ccccc1)C(=O)N[C@H](C(=O)N[C@@H](CCCCNC(=O)COCCOCCNC(=O)COCCOCCNC(=O)CC[C@H](NC(=O)CCCCCCCCCCCCCCCCC(=O)O)C(=O)O)C(=O)N[C@@H](Cc1c[nH]c2ccccc12)C(=O)N[C@@H](CC(C)C)C(=O)N[C@@H](CC(C)C)C(=O)N[C@@H](CC(N)=O)C(=O)N[C@H](C(N)=O)[C@@H](C)O)C(C)C [Example 30, N^ε24-([2-[2-[2-[[2-[2-[2-[[(4S)-5-hydroxy-4-[(18-hydroxy-18-oxooctadecanoyl)amino]-5-oxopentanoyl]amino]ethoxy]ethoxy]acetyl]amino]ethoxy]ethoxy]acetyl]) [D-Ser^2,Glu^16,Gln^17,Ala^18,Arg^20,Lys^24,Leu^27] Glucagon peptide amide] (H-H[dS]QGTFTSDYSKYLDEQAARDFVK([AEEA-AEEA-γGlu-C18 diacid])WLLNT-NH2; N-terminus assumed)	0.137
CC(C)C[C@H](NC(=O)[C@H](Cc1ccc(O)cc1)NC(=O)[C@H](CCCCN)NC(=O)[C@H](CO)NC(=O)[C@H](Cc1ccc(O)cc1)NC(=O)[C@H](CC(=O)O)NC(=O)[C@H](CO)NC(=O)[C@@H](NC(=O)[C@H](Cc1ccccc1)NC(=O)[C@@H](NC(=O)CNC(=O)[C@H](CCC(N)=O)NC(=O)[C@H](CO)NC(=O)[C@@H](N)Cc1c[nH]cn1)[C@@H](C)O)[C@@H](C)O)C(=O)N[C@@H](CC(=O)O)C(=O)N[C@@H](CO)C(=O)N[C@@H](CCCNC(=N)N)C(=O)N[C@@H](CCCNC(=N)N)C(=O)N[C@@H](C)C(=O)N[C@@H](CCC(N)=O)C(=O)N[C@@H](CCC(=O)O)C(=O)N[C@@H](Cc1ccccc1)C(=O)N[C@H](C(=O)N[C@@H](CCCCNC(=O)COCCOCCNC(=O)COCCOCCNC(=O)CC[C@H](NC(=O)CCCCCCCCCCCCCCCCC(=O)O)C(=O)O)C(=O)N[C@@H](CCCNC(=N)N)C(=O)N[C@@H](CC(C)C)C(=O)N[C@@H](CC(C)C)C(=O)N[C@@H](CC(N)=O)C(=O)N[C@H](C(N)=O)[C@@H](C)O)C(C)C [Example 31, N^ε24-([2-[2-[2-[[2-[2-[2-[[(4S)-5-hydroxy-4-[(18-hydroxy-18-oxooctadecanoyl)amino]-5-oxopentanoyl]amino]ethoxy]ethoxy]acetyl]amino]ethoxy]ethoxy]acetyl])[Glu^21, Lys^24, Arg25 Leu^27,]Glucagon peptide amide]	0.043
CC(C)C[C@H](NC(=O)[C@H](CC(C)C)NC(=O)[C@H](Cc1c[nH]c2ccccc12)NC(=O)[C@H](CCCCNC(=O)COCCOCCNC(=O)COCCOCCNC(=O)CC[C@H](NC(=O)CCCCCCCCCCCCCCCCC(=O)O)C(=O)O)NC(=O)[C@@H](NC(=O)[C@H](Cc1ccccc1)NC(=O)[C@H](CC(=O)O)NC(=O)[C@H](CCC(N)=O)NC(=O)[C@H](C)NC(=O)[C@H](CCCNC(=N)N)NC(=O)[C@H](CCCNC(=N)N)NC(=O)[C@H](CCC(=O)O)NC(=O)[C@H](CC(=O)O)NC(=O)[C@H](CC(C)C)NC(=O)[C@H](Cc1ccc(O)cc1)NC(=O)[C@H](CCCCN)NC(=O)[C@H](CO)NC(=O)[C@H](Cc1ccc(O)cc1)NC(=O)[C@H](CC(=O)O)NC(=O)[C@H](CO)NC(=O)[C@@H](NC(=O)[C@H](Cc1ccccc1)NC(=O)[C@@H](NC(=O)CNC(=O)[C@H](CCC(N)=O)NC(=O)[C@H](CO)NC(=O)[C@@H](N)Cc1c[nH]cn1)[C@@H](C)O)[C@@H](C)O)C(C)C)C(=O)N[C@@H](C)C(=O)N[C@H](C(N)=O)[C@@H](C)O [Example 32, N^ε24-([2-[2-[2-[[2-[2-[2-[[(4S)-5-hydroxy-4-[(18-hydroxy-18-oxooctadecanoyl)amino]-5-oxopentanoyl]amino]ethoxy]ethoxy]acetyl]amino]ethoxy]ethoxy]acetyl])[Glu^16, Lys^24, Leu^27, Ala^28] Glucagon peptide amide] (H-HSQGTFTSDYSKYLDERRAQDFVK([AEEA-AEEA-γGlu-C18 diacid])WLLAT-NH2; N-terminus assumed)	0.0235
CC(C)C[C@H](NC(=O)[C@H](Cc1ccc(O)cc1)NC(=O)[C@H](CCCCN)NC(=O)[C@H](CO)NC(=O)[C@H](Cc1ccc(O)cc1)NC(=O)[C@H](CC(=O)O)NC(=O)[C@H](CO)NC(=O)[C@@H](NC(=O)[C@H](Cc1ccccc1)NC(=O)[C@@H](NC(=O)CNC(=O)[C@H](CCC(N)=O)NC(=O)[C@H](CO)NC(=O)[C@@H](N)Cc1c[nH]cn1)[C@@H](C)O)[C@@H](C)O)C(=O)N[C@@H](CC(=O)O)C(=O)N[C@@H](CO)C(=O)N[C@@H](CCC(N)=O)C(=O)N[C@@H](CCCNC(=N)N)C(=O)N[C@@H](C)C(=O)N[C@@H](CCC(N)=O)C(=O)N[C@@H](CC(=O)O)C(=O)N[C@@H](Cc1ccccc1)C(=O)N[C@H](C(=O)N[C@@H](CCCCNC(=O)COCCOCCNC(=O)COCCOCCNC(=O)CC[C@H](NC(=O)CCCCCCCCCCCCCCCCC(=O)O)C(=O)O)C(=O)N[C@@H](Cc1c[nH]c2ccccc12)C(=O)N[C@@H](CC(C)C)C(=O)N[C@H](C(=O)N[C@@H](CCCCN)C(=O)N[C@H](C(=O)NCC(=O)N1CCC[C@H]1C(N)=O)[C@@H](C)O)C(C)C)C(C)C [Example 33, (N^ε24-([2-[2-[2-[[2-[2-[2-[[(4S)-5-hydroxy-4-[(18-hydroxy-18-oxooctadecanoyl)amino]-5-oxopentanoyl]amino]ethoxy]ethoxy]acetyl]amino]ethoxy]ethoxy]acetyl])[Gln^17, Lys^24, Val^27, Lys^28] Glucagonyl)-Gly-Pro amide] (H-HSQGTFTSDYSKYLDSQRAQDFVK([AEEA-AEEA-γGlu-C18 diacid])WLVKTGP-NH2; N-terminus assumed)	0.942
CC(C)C[C@H](NC(=O)[C@H](Cc1ccc(O)cc1)NC(=O)[C@H](CCCCN)NC(=O)[C@H](CO)NC(=O)[C@H](Cc1ccc(O)cc1)NC(=O)[C@H](CC(=O)O)NC(=O)[C@H](CO)NC(=O)[C@@H](NC(=O)[C@H](Cc1ccccc1)NC(=O)[C@@H](NC(=O)CNC(=O)[C@H](CCC(N)=O)NC(=O)[C@H](CO)NC(=O)[C@@H](N)Cc1c[nH]cn1)[C@@H](C)O)[C@@H](C)O)C(=O)N[C@@H](CC(=O)O)C(=O)N[C@@H](CCCCNC(=O)COCCOCCNC(=O)COCCOCCNC(=O)CC[C@H](NC(=O)CCCCCCCCCCCCCCCCC(=O)O)C(=O)O)C(=O)N[C@@H](CCCCN)C(=O)N[C@@H](CCCNC(=N)N)C(=O)N[C@@H](C)C(=O)N[C@@H](CCC(N)=O)C(=O)N[C@@H](CCC(=O)O)C(=O)N[C@@H](Cc1ccccc1)C(=O)N[C@H](C(=O)N[C@@H](CCC(N)=O)C(=O)N[C@@H](Cc1c[nH]c2ccccc12)C(=O)N[C@@H](CC(C)C)C(=O)N[C@@H](CC(C)C)C(=O)N[C@@H](CC(N)=O)C(=O)N[C@H](C(N)=O)[C@@H](C)O)C(C)C [Example 34, N^ε16-([2-[2-[2-[[2-[2-[2-[[(4S)-5-hydroxy-4-[(18-hydroxy-18-oxooctadecanoyl)amino]-5-oxopentanoyl]amino]ethoxy]ethoxy]acetyl]amino]ethoxy]ethoxy]acetyl])[Lys^16,Lys^17,Glu^21, Leu^27] Glucagon peptide amide] (H-HSQGTFTSDYSKYLDK([AEEA-AEEA-γGlu-C18 diacid])KRAQEFVQWLLNT-NH2; N-terminus assumed)	0.018
